Experimental data as given in publication PMC10943399 (Heliyon, 2024).
“Also recorded” adds a separate entry of the source. Where two headings read alike, the source gives them in different places.

Tests used:
[1] = system: P. falciparum Gombak A (CQ-resistant); assay: pLDH antimalarial assay, P. falciparum Gombak A; type: cell-based, Plasmodium falciparum; settings: for EC50: 48 h; for Selectivity Index (SI) (CC50MTT/EC50pLDH) P. falciparum Gombak A (CQ-resistant): Vero CC50 / Gombak A EC50
[2] = system: P. falciparum 3D7 (CQ-sensitive); assay: pLDH antimalarial assay, P. falciparum 3D7; type: cell-based, Plasmodium falciparum; settings: for Selectivity Index (SI) (CC50MTT/EC50pLDH) P. falciparum 3D7 (CQ-sensitive): Vero CC50 / 3D7 EC50; for antimalarial activity category against CQ-sensitive P. falciparum 3D7: category by EC50 range
[3] = system: P. knowlesi PKA1H1; assay: pLDH antimalarial assay, P. knowlesi A1H1; type: cell-based, Plasmodium knowlesi; settings: for EC50: Plasmodium knowlesi, 24 h, read-out: P. knowlesi PKA1H1 EC50 (μM) ± SD; for Selectivity Index (SI) (CC50MTT/EC50pLDH) P. knowlesi PKA1H1: Vero CC50 / PKA1H1 EC50
[4] = Solubility in egg water; type: physicochemical; settings: zebrafish egg water
[5] = system: parasites; settings: mice, dosage of 5 mg/kg, four days after treatment; cited from earlier work
[6] = system: zebrafish embryos; assay: Zebrafish embryo acute toxicity; type: in vivo, zebrafish (Danio rerio); settings: for effect on early embryonic development: zebrafish embryos at 24 hpf
[7] = system: transgenic zebrafish line Tg(kdrl:egfp); assay: Blood vessel formation in transgenic zebrafish Tg; type: in vivo, zebrafish (Danio rerio); settings: 30 hpf
[8] = system: Vero cell (Normal cell); assay: MTT cytotoxicity assay against Vero cells; type: cell-based; settings: read-out: Vero cell (Normal cell) CC50 (μM) ± SD, 72 h, three independent experiments
[9] = system: zebrafish embryos; assay: Spontaneous tail coiling; type: in vivo, zebrafish (Danio rerio); settings: zebrafish embryos at 24 hpf, 6.25-50 μM, vs 0.1% DMSO
[10] = system: zebrafish larvae; assay: Zebrafish cardiotoxicity; type: in vivo, zebrafish (Danio rerio); settings: zebrafish larvae at 72 hpf
[11] = Plasmodium falciparum, read-out: P. falciparum Gombak A (CQ-resistant) EC50 (μM) ± SD, pLDH assay, 48 h, three independent experiments
[12] = Plasmodium falciparum, 3D7, 48 h, read-out: P. falciparum 3D7 (CQ-sensitive) EC50 (μM) ± SD, pLDH assay, 48 h, three independent experiments
[13] = read-out: P. falciparum 3D7 (CQ-sensitive) EC50 (μM) ± SD, pLDH assay, 48 h, three independent experiments
[14] = zebrafish, 72 hpf, up to 200 μM
[15] = up to 200 μM, 2 h after treatment

In the case of `COc1cc(C=C2CCCC(=Cc3cc(OC)c(OC)c(OC)c3)C2=O)cc(OC)c1OC` [MS72C, 2,6-Bis(3,4,5-trimethoxybenzylidene)cyclohexanone], the EC50 [1, 11] is reported as greater than 200 µM, the EC50 [2, 12] is reported as greater than 500 µM and the EC50 [2, 13] is reported as 515.1 ± 4.9 µM. For the same compound, the EC50 [3] was 430.1 ± 2.3 µM.

With `COc1cc(C=C2CCC(=Cc3cc(OC)c(OC)c(OC)c3)C2=O)cc(OC)c1OC` [MS87, 2,5-Bis(3,4,5-trimethoxybenzylidene)cyclopentanone] the “solubility in egg water” value [4] was “problems with solubility in egg water”, the EC50 [1, 11] was 1.85 to 8.75 µM and the “Selectivity Index (SI) (CC50MTT/EC50pLDH) P. falciparum Gombak A (CQ-resistant)” value [1] was 304.9. The EC50 ([1]; read-out: P. falciparum Gombak A (CQ-resistant) EC50 (μM) ± SD, pLDH assay, three independent experiments) was 1.85 ± 2.8 µM, the EC50 [2, 12] was 10.8 ± 1.3 µM and the “Selectivity Index (SI) (CC50MTT/EC50pLDH) P. falciparum 3D7 (CQ-sensitive)” value [2] was 52.2. For the same compound, the “antimalarial activity category against CQ-sensitive P. falciparum 3D7” value [2] was “active”, the EC50 [3] was 11.4 ± 0.9 µM and the “Selectivity Index (SI) (CC50MTT/EC50pLDH) P. knowlesi PKA1H1” value [3] was 49.5.

With `O=C1C(=Cc2ccccc2Cl)CCCC1=Cc1ccccc1Cl` [MS47, 2,6-Bis(2-chlorobenzylidene)cyclohexanone] the EC50 [1, 11] was 51.4 ± 2.7 µM, the “Selectivity Index (SI) (CC50MTT/EC50pLDH) P. falciparum Gombak A (CQ-resistant)” value [1] was 3.3 and the EC50 [2, 12] was 16.1 ± 0.5 µM. For the same compound, the “Selectivity Index (SI) (CC50MTT/EC50pLDH) P. falciparum 3D7 (CQ-sensitive)” value [2] was 10.6, the “antimalarial activity category against CQ-sensitive P. falciparum 3D7” value [2] was “active” and the EC50 [3] was 21.7 ± 1.2 µM. The “Selectivity Index (SI) (CC50MTT/EC50pLDH) P. knowlesi PKA1H1” value [3] was 7.9.

In the case of `COc1cc(/C=C/C(=O)CC(=O)/C=C/c2ccc(O)c(OC)c2)ccc1O` [free curcumin, curcumin], the suppression of parasites [5] is listed as 40.5%.

With `COc1cccc(C=CC(=O)C=Cc2cccc(OC)c2OC)c1OC` [MS33A, 1,5-Bis(2,3-dimethoxyphenyl)penta-1,4-dien-3-one] the “effect on early embryonic development” value ([6]; 100 μM (not at 50 μM and lower)) was “gastrulation defects”, the “heart development (edema)” value ([6]; zebrafish, 72 hpf, 50 μM (not at 25 μM)) was “heart edema” and the “development of intersegmental vessels (ISVs)” value (“development … (ISVs)” below) ([7]; 50 μM (not at 25 μM)) was “affected ISVs development; also recorded: inhibitory effects on ISV development”. For the same compound, the EC50 [1, 11] was 87.5 ± 0.9 µM, the “Selectivity Index (SI) (CC50MTT/EC50pLDH) P. falciparum Gombak A (CQ-resistant)” value [1] was 1.0 and the CC50 [8] was 82.6 ± 1.7 µM. For the same compound, the “mean STC activity” value [9] was “No significant change”, the “Selectivity Index (SI) (CC50MTT/EC50pLDH) P. falciparum 3D7 (CQ-sensitive)” value [2] was 26.6 and the “antimalarial activity category against CQ-sensitive P. falciparum 3D7” value [2] was “active”. The heart rate ([10]; 12.5 μM) was “relatively normal”, the heart rate ([10]; 25 and 50 μM) was “decrease in heartbeats” and the EC50 [3] was 3.6 ± 0.2 µM. For the same compound, the “Selectivity Index (SI) (CC50MTT/EC50pLDH) P. knowlesi PKA1H1” value [3] was 22.9.

`COc1ccc(C=C2CCCC(=Cc3ccc(OC)c(OC)c3OC)C2=O)c(OC)c1OC` [MS72A, 2,6-Bis(2,3,4-trimethoxybenzylidene)cyclohexanone] showed an EC50 [1, 11] greater than 200 µM, an EC50 [2, 12] greater than 500 µM and an EC50 [2, 13] of 530 ± 3.6 µM. It also gave an EC50 [3] of 507.5 ± 1.3 µM.

With `O=C(C=Cc1cccc(Cl)c1)C=Cc1cccc(Cl)c1` [MS40B, 1,5-Bis(3-chlorophenyl)penta-1,4-dien-3-one] the EC50 [1, 11] was 45.6 ± 1.3 µM, the “Selectivity Index (SI) (CC50MTT/EC50pLDH) P. falciparum Gombak A (CQ-resistant)” value [1] was 3.6 and the EC50 [2, 12] was 13.7 ± 0.8 µM. For the same compound, the “Selectivity Index (SI) (CC50MTT/EC50pLDH) P. falciparum 3D7 (CQ-sensitive)” value [2] was 12.0, the “antimalarial activity category against CQ-sensitive P. falciparum 3D7” value [2] was “active” and the EC50 [3] was 16.6 ± 0.5 µM. For the same compound, the “Selectivity Index (SI) (CC50MTT/EC50pLDH) P. knowlesi PKA1H1” value [3] was 9.9.

In the case of `O=C1C(=Cc2cccc(F)c2)CCC1=Cc1cccc(F)c1` [MS79, 2,5-Bis(3-fluorobenzylidene)cyclopentanone], the EC50 [1, 11] is reported as greater than 200 µM, the EC50 [2, 12] is reported as greater than 500 µM and the EC50 [2, 13] is reported as 329.3 ± 2.6 µM. For the same compound, the EC50 [3] was 195 ± 2.7 µM.

For `COc1cccc(OC)c1C=CC(=O)C=Cc1c(OC)cccc1OC` [MS33D, 1,5-Bis(2,6-dimethoxyphenyl)penta-1,4-dien-3-one], the EC50 [1, 11] was 74.4 ± 2.4 µM, the “Selectivity Index (SI) (CC50MTT/EC50pLDH) P. falciparum Gombak A (CQ-resistant)” value [1] was 3.0 and the EC50 [2, 12] was 21.7 ± 0.8 µM. For the same compound, the “Selectivity Index (SI) (CC50MTT/EC50pLDH) P. falciparum 3D7 (CQ-sensitive)” value [2] was 10.4, the EC50 [3] was 23.7 ± 2.6 µM and the “Selectivity Index (SI) (CC50MTT/EC50pLDH) P. knowlesi PKA1H1” value [3] was 9.5.

In the case of `COc1ccc(OC)c(C=CC(=O)C=Cc2cc(OC)ccc2OC)c1` [MS33C, 1,5-Bis(2,5-dimethoxyphenyl)penta-1,4-dien-3-one], the “effect on early embryonic development” value ([6]; up to 200 μM) is reported as “no significant effect”, the “morphological changes / heart development” value [6, 14] is reported as “no detectable morphological changes; also recorded: no effect on normal heart development” and the “development … (ISVs)” value ([7]; up to 200 μM) is reported as “no effect on normal vessel development; also recorded: no significant difference”. The EC50 [1, 11] was 56.2 ± 1.3 µM, the “Selectivity Index (SI) (CC50MTT/EC50pLDH) P. falciparum Gombak A (CQ-resistant)” value [1] was 2.9 and the CC50 [8] was 163 ± 1.8 µM. For the same compound, the “mean STC activity” value [9] was “No significant change”, the EC50 [2, 12] was less than 5 µM and the “Selectivity Index (SI) (CC50MTT/EC50pLDH) P. falciparum 3D7 (CQ-sensitive)” value [2] was 65.2. The “antimalarial activity category against CQ-sensitive P. falciparum 3D7” value [2] was “active”, the EC50 [2, 13] was 2.5 ± 0.4 µM and the heart rate [10, 15] was “no obvious abnormalities; also recorded: normal heart beats”. For the same compound, the EC50 [3] was 5.1 ± 0.2 µM and the “Selectivity Index (SI) (CC50MTT/EC50pLDH) P. knowlesi PKA1H1” value [3] was 32.0.

With `COc1cc(C=CC(=O)C=Cc2cc(OC)c(OC)c(OC)c2)cc(OC)c1OC` [MS34C, 1,5-Bis(3,4,5-trimethoxyphenyl)penta-1,4-dien-3-one] the “effect on early embryonic development” value ([6]; up to 200 μM) was “no significant effect”, the “morphological changes / heart development” value [6, 14] was “no detectable morphological changes; also recorded: no effect on normal heart development” and the “development … (ISVs)” value ([7]; up to 200 μM) was “no effect on normal vessel development; also recorded: no significant difference”. For the same compound, the “Selectivity Index (SI) (CC50MTT/EC50pLDH) P. falciparum Gombak A (CQ-resistant)” value [1] was 15.4, the CC50 [8] was 134 ± 3.2 µM and the “mean STC activity” value [9] was “No significant change”. For the same compound, the “Selectivity Index (SI) (CC50MTT/EC50pLDH) P. falciparum 3D7 (CQ-sensitive)” value [2] was 84.0, the “antimalarial activity category against CQ-sensitive P. falciparum 3D7” value [2] was “active” and the heart rate [10, 15] was “no obvious abnormalities; also recorded: normal heart beats”. The EC50 [3] was 11.8 ± 1.1 µM and the “Selectivity Index (SI) (CC50MTT/EC50pLDH) P. knowlesi PKA1H1” value [3] was 11.4.

In the case of `O=C1C(=Cc2ccccc2F)CCC1=Cc1ccccc1F` [MS78, 2,5-Bis(2-fluorobenzylidene)cyclopentanone], the EC50 [1, 11] is reported as greater than 200 µM, the EC50 [2, 12] is reported as greater than 500 µM and the EC50 [2, 13] is reported as 689.1 ± 4.2 µM. For the same compound, the EC50 [3] was 355 ± 7.1 µM.

Work on `COc1cccc(C=C2CCCC(=Cc3cccc(OC)c3OC)C2=O)c1OC` [MS69, 2,6-Bis(2,3-dimethoxybenzylidene)cyclohexanone] yielded an EC50 [1, 11] of 28.7 ± 2 µM, an EC50 [2, 12] greater than 500 µM and an EC50 [2, 13] of 785.8 ± 4.2 µM. It also gave an EC50 [3] of 324 ± 5.9 µM.

`CCN(CC)CCCC(C)Nc1ccnc2cc(Cl)ccc12` (centres unmarked) [CQ, chloroquine, reference compound] gave an EC50 [1, 11] of 5.56 ± 3.2 µM.
